This note sets out measurements from US20080275226A1, “Medical Use of Paeoniflorin” (priority 2004, published 2008).

The test system of one data set is permanent MCAO model. The data set is described as follows: Permanent focal cerebral ischemia model (permanent MCAO). It is filed as in vivo, rat.
The next data set concerns transient MCAO rats. The data set is described as follows: Transient focal cerebral ischemia model (transient MCAO). Type of data set: in vivo. Conditions: transient MCAO rat.
For data set [1], the system named is mouse PD model induced by MPTP. Description: MPTP-induced mouse PD model (pole test, TH staining). Type of data set: in vivo. Conditions: 5 mg·kg^−1 s.c. for 11 days, C57B1/6J mice. As to the method: The mouse PD model induced by 1-methyl-4-phenyl-1,2,3,6-tetrahydro-pyridine (MPTP) is used to test the effect of paeoniflorin on the ability of climbing pole and the deletion of dopamine neuron of substantia nigra of midbrain in the PD model mouse. Male C57B1/6J mice of 20-25 g are used. The climbing pole time of the mice are measured before experiment. The mice are divided into 5 groups according to the climbing pole time and there are 8 mice in each group. Low dose and middle dose paeoniflorin are administered by subcutaneous injection for 11 days continuously, and 1-methyl-4-phenyl-1,2,3,6-tetrahydro-pyridine (MPTP) is injected intraperitoneally (ip) at 2 hours intervals for 4 times on day 8 of the experiment to induce mouse PD model.
The motor activity of the mice are measured by pole test, the mice are put on to the vertical coarse pole of 55 cm long and 8 mm diameter with head downward, and the time that the mice go downward to all the limbs contact the ground is measured (Hamaue N, Minami M, Terado M, Hirafuji M, Endo T, Machida M, Hiroshige T, Ogata A, Tashiro K, Saito H, Parvez S H. Comparative study of the effects of isatin, an endogenous MAO-inhibitor, and selegiline on bradykinesia and dopamine levels in a rat model of Parkinson's disease induced by the Japanese encephalitis virus. Neurotoxicology. 2004 January; 25(1-2):205-13.).
Male C57B1/6J mice of 20-25 g were used. The climbing pole time of the mice was measured before experiment. The mice were divided into 5 groups according to the climbing pole time and there were 8 mice in each group. Paeoniflorin (2.5 mg kg^−1, 5 mg kg^−1) were administered by subcutaneous injection for 11 days continuously, and 1-methyl-4-phenyl-1,2,3,6-tetrahydro-pyridine (MPTP) was injected intraperitoneally (ip) at 2 hours intervals for 4 times on day 8 of the experiment to induce mouse PD model. The administration schedule was as follows:
The mice were put on to the vertical coarse pole of 55 cm long and 8 mm diameter with head downward, and the time that the mice went downward to all the limbs contacted the ground was measured.
The heart was perfused with 4% paraformaldehyde to be pro-fixed, and then the cerebrum was taken out, and post-fixed with 4% formaldehyde solution for 1 week. Coronal sections were performed continuously (section thick […]). Tyrosine hydroxylase (TH) was used as the specific marker of dopamine neuron. The primary antibody was monoclonal mouse TH antibody (1:1000, Sigma), the second antibody was Alexa fluor 488 fluorescence labeled goat anti-mouse (1:1000, Molecular Probes). Photographs were taken under fluorescence microscope (Olympus DP70), and TH positive cells of substantia nigra were counted.

Data set [2] is described as follows: Blood pressure and heart rate of conscious rat (tail sleeve sensor). Type of data set: in vivo. Conditions: 10, 40, 160 mg kg^−1 i.v., 5 min to 2 hr after administration. As for the experimental part:
The conscious rats are used as research subject, sensors of tail sleeve are used to transduce the pressure pulse to phototriodes and convert it into corresponding blood pressure and heart rate values. When the rats calm down, their blood pressure and heart rate values are recorded as the base values. Then, physiological saline, various doses of paeoniflorin and reserpine are injected through caudal vein respectively.
The changes of blood pressure and heart rate before the administration (0 min) and after the administration (5 min to 2 hr) are recorded.
The conscious rats were used as research subject, sensor of tail sleeve were used to transduce the pressure pulse to phototriodes and converted it into corresponding blood pressure value and heart rate values. When the rats calmed down, their blood pressure and heart rate value were recorded as the base values. Then, physiological saline, paeoniflorin (10, 40, 160 mg kg^−1) and reserpine were injected through caudal vein respectively.
The changes of blood pressure and heart rate before the administration (0 min) and after the administration (5 min to 2 hr) were recorded.

Data set [3] addresses T1, A1R (Rattus norvegicus, UniProt P25099).
T1 construct: Synaptic membranes of rat cerebral cortex are employed in the assay; from tissue; host or cells: rat cerebral cortex synaptic membranes
T1 sequence (P25099 1-326): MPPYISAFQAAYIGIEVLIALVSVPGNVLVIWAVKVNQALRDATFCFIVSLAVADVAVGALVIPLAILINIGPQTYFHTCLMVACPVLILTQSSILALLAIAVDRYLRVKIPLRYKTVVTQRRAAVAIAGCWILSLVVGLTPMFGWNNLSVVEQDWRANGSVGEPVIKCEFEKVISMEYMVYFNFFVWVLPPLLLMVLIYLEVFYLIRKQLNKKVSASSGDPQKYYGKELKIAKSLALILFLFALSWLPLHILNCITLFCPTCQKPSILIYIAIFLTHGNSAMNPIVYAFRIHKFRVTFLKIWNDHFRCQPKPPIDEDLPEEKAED
Description: Competitive binding with [3H]-NECA, high-affinity site (two-site fit), rat cerebral cortex synaptic membranes. As to the method:
(§1) Synaptic membranes of rat cerebral cortex are employed in the assay. After decapitation of the rat, cerebral cortex is separated and homogenized sufficiently in 1:15 (W/V) sucrose solution, after centrifuged, the supernatant is taken and centrifuged again. After discarding the supernatant, the sediment is resuspended in 1:30 (W/V) Tris-HCl buffer (50 mM, PH 7.4), homogenized, washed and then centrifuged, after repeating the wash process 3 times, the sediment is resuspended in 1:5 (W/V) Tris-HCl buffer (50 mM, PH 7.4) again and subpakaged, stored at −80° C. The protein concentration is measured by Bradford method (Bradford M M. A rapid and sensitive method for the quantitation of microgram quantities of proteins utilizing the principle of protein-dye binding. Anal Biochem. 1976; 72: 248-254.). All the above procedures are operated at 4° C.
(§2) The above model is used to evaluate the competitive binding of paeoniflorin with the A1R and A2aR receptor mixed agonist [^3H]-ethyl amide adenosine ([3H]-NECA) and the A1R receptor selective agonist [3H]-CCPA.
(§3) After decapitation of the rat, cerebral cortex was separated immediately, and put it into ice-cold physiological saline. […] The protein concentration was measured by Bradford method. […]

The target in another data set is T2, A2AR (Rattus norvegicus, UniProt P30543).
T2 construct: Synaptic membranes of rat cerebral cortex are employed in the assay; from tissue; host or cells: rat cerebral cortex synaptic membranes
The data set is described as follows: Competitive binding with [3H]-NECA, low-affinity site (two-site fit), rat cerebral cortex synaptic membranes. Conditions: two-site competition fit, site 2; 25 nmol/L [3H]-NECA; rat cerebral cortex synaptic membrane; read-out: EC502, competitive binding with [3H]-NECA. As for the experimental part:
as §1, §2, §3

Data set [4] has as its target T1, A1R. Description: Competitive binding with [3H]-CCPA, rat cerebral cortex synaptic membranes. Conditions: 0.2 nmol/L [3H]-CCPA; rat cerebral cortex synaptic membrane. As for the experimental part:
as §1, §2, §3

pEC50: −log10 of the molar value. “Also recorded” adds a separate entry of the source.

T2 sequence (P30543 whole entry): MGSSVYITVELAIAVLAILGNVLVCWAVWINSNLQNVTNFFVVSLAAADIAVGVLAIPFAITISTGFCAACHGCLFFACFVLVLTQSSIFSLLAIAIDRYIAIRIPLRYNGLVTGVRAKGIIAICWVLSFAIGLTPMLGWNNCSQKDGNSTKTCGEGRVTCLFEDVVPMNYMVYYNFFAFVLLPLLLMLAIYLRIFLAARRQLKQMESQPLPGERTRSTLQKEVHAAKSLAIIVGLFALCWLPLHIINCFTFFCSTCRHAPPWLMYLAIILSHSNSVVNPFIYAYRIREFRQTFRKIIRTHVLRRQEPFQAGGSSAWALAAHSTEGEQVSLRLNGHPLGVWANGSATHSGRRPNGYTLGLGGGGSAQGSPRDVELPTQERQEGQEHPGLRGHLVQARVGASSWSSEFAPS

For the compound `CCCn1c(=O)c2[nH]c(C3CCCC3)nc2n(CCC)c1=O` [DPCPX], the “effect of DPCPX on the protection by paeoniflorin” value in the data set on permanent MCAO model (DPCPX s.c. 15 min before ischemia + paeoniflorin 10 mg·kg^−1 s.c.) is “this effect can be antagonized; also recorded: block the protection of paeoniflorin; also recorded: this effect could be inhibited”.

As for “β-D-Glucopyranoside,56-[(benzoyloxy)methyl]tetrahydro-5-hydroxy-2-methyl-2,5-methano-1H-3,4-dioxacyclobuta[cd]Pentalen-1a(2H)-yl,[lar-claα,2β,3aα,5aα,5bα]] [paeoniflorin]”, in the data set with transient MCAO rats (5 mg·kg^−1 s.c. at 15 min and 6 h after ischemia), the “neurological symptom (neurological defect score)” value is recorded as “improves the neurological symptom; also recorded: obviously improved the neurological symptom”. Besides, the “injury of cerebral subcortical nucleus and cerebral cortex caused by ischemia” value in the data set on transient MCAO rats (5 mg·kg^−1 s.c., TTC staining) is “significantly decreases the injury; also recorded: significantly decreased the defect”. In addition, the results for the “deletion of dopaminergic neuron induced by MPTP (TH staining, substantia nigra)” value in data set [1] and in data set [1] (listed as Paeoniflorin) were “antagonize the deletion of dopaminergic neuron” and “significantly antagonized”, respectively. Also, the “motor dysfunction (bradykinesia) caused by MPTP, pole test” value in data set [1] is on record as “significantly improve the motor dysfunction”; in data set [1] (listed as Paeoniflorin), “significantly antagonized”. The “blood pressure of conscious rats” value is on record as “does not affect” in data set [2] and “did not affect” in data set [2] (listed as Paeoniflorin). Besides, the “heart rate of conscious rats” value in data set [2] is reported as “does not affect”; in data set [2] (listed as Paeoniflorin), “did not affect”. Moreover, at A1R [3] (A1R over A2AR, [3H]-NECA two-site fit), the “selectivity EC502/EC501” value worked out at 360 times. Further, the pEC50 was 7.86 on A1R [3] (two-site competition fit, site 1, 25 nmol/L [3H]-NECA, rat cerebral cortex synaptic membrane, read-out: EC501, competitive binding with [3H]-NECA); 5.30 on A2AR; 7.70 at A1R [4]. Also, in the data set with permanent MCAO model (2.5, 5, 10 mg·kg^−1 s.c., TTC staining), the “injury of cerebral subcortical nucleus and cerebral cortex caused by ischemia, dose dependence” value was “decreases the injury of cerebral subcortical nucleus and cerebral cortex caused by ischemia dose-dependently; also recorded: dose-dependently decreased the defect”.
